Measured values as given in US20240294551A1 (AMGEN INC., priority 2022, published 2024).
Like-named read-outs stand apart in the source and are kept apart here.

How the values were obtained:
[1] = target: His-tagged KRAS G12D protein (Homo sapiens (Human), UniProt P01116, G12D); assay: KRAS G12D TR-FRET Assay; format: binding
Outline: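 Each incubation ran at room temperature: enzyme with compound for 30 minutes, peptide for one hour, and detection reagents (0.4 nM europium anti-6×His, 5 nM streptavidin-d2) for one hour more. Protein and peptide stocks were each diluted to 20 nM before addition.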

[2] = target: GDP-bound KRAS protein (aa 1-169), containing both G12D and C118A amino acid substitutions (Homo sapiens (Human), UniProt P01116, C118A/G12D); assay: KRAS G12D Coupled Nucleotide Exchange Assay; format: biochemical
GDP-bound KRAS protein (aa 1-169), containing both G12D and C118A amino acid substitutions, sequence (P01116 other isoform, or with tags, fused parts or gaps G12D/C118A): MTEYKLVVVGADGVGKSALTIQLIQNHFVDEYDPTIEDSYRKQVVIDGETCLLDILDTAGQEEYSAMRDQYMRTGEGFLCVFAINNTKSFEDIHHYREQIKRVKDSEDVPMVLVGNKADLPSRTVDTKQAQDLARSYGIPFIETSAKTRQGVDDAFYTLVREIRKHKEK

[3] = system: Phosphorylation of ERK1/2 in AsPC-1 cells; assay: Phospho-ERK1/2 MSD Assay; format: cell-based, human
Outline: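 Read-out: MSD electrochemiluminescent detection of phosphorylated ERK1/2 in whole-cell lysates, fitted to a 4-parameter logistic curve for IC50. Prior to lysis, AsPC-1 cells (25,000 per well) received a 2 h compound dose-response at 37 °C.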

AsPC-1 cells = assay: AsPC-1 CTG Assay (CellTiter-Glo cell viability); format: cell-based, human; conditions: first value of the cell, read-out: G12D/C/V Cell Proliferation CTG (72 h) AsPC-1
Outline: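 IC50 values derive from 4-parameter logistic fits of CellTiter-Glo luminescence, expressed relative to DMSO. Compound dilution series were applied to overnight-seeded AsPC-1 or SW620 cells (RPMI 1640, 10% FBS) for 72 h at 37 °C, 5% CO2.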

[4] = read-out: KRAS G12D Binding IC50
[5] = read-out: KRAS G12D Coupled Exchange IC50
[6] = 2 h, read-out: 2 h p-ERK (AsPC-1 cells), IC50
[7] = Homo sapiens, ASPC1, 2 h, read-out: 2 h p-ERK (AsPC-1 cells), IC50
[8] = Homo sapiens, ASPC1, 72 h, AsPC-1, 72 h
[9] = TR-FRET, read-out: KRAS G12D Binding
[10] = 2 hours compound pre-incubation, read-out: KRAS G12D Coupled Exchange
[11] = Homo sapiens, ASPC1, 2 h, read-out: 2 h p-ERK (AsPC-1 cells)
[12] = Homo sapiens, ASPC1, 72 h, AsPC-1 cells (G12D), 72 h

His-tagged KRAS G12D protein, sequence (P01116 other isoform, or with tags, fused parts or gaps G12D): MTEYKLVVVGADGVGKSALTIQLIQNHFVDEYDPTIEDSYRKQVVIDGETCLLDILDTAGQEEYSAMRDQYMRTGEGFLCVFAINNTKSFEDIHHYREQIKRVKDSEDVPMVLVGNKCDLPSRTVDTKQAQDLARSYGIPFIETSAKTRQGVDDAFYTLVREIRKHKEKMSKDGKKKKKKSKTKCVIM

| Compound | IC50 [1, 4] | IC50 [2, 5] | IC50 [3, 6] | IC50 (AsPC-1 cells; AsPC-1, 72 h) | IC50 [3, 7] | IC50 (AsPC-1 cells; [8]) | IC50 [1, 9] | IC50 [2, 10] | IC50 [3, 11] | IC50 (AsPC-1 cells; [12]) |
| --- | --- | --- | --- | --- | --- | --- | --- | --- | --- | --- |
| COc1c2ncc3c(nc(OC[C@@]45CCCN4C[C@H](F)C5)nc13)N1CCC[C@](C)(C1)NC(=O)CCCc1c(F)ccc3cc(O)cc-2c13 [Example 19, (15R)-22-Fluoro-8-(((2R,7aS)-2-fluorotetrahydro-1H-pyrrolo[1,2-a]pyrrol-7a(5H)-yl)methoxy)-27-hydroxy-31-methoxy-15-methyl-3,7,9,11,16-pentaazahexacyclo[19.7.1.1˜2,6˜.1˜11,15˜.0˜5,10˜.0˜25,29˜]hentriaconta-1(28),2(31),3,5,7,9,21,23,25(29),26-decaen-17-one] | 7 nM | 5 nM |  |  | 1860 nM | 5000 nM |  |  |  |  |
| O=C1OCCCc2c(Cl)cccc2-c2ncc3c(nc(OC[C@@]45CCCN4C[C@H](F)C5)nc3c2F)N2CCOC[C@H](C2)O1 [Example 186, (23S)-15-chloro-29-fluoro-4-(((2R,7aS)-2-fluorotetrahydro-1H-pyrrolo[1,2-a]pyrrol-7a(5H)-yl)methoxy)-20,22,25-trioxa-1,3,5,9-tetraazapentacyclo[21.4.1.1~6,10~.0~2,7~.0~11,16~]nonacosa-2,4,6,8,10(29),11,13,15-octaen-21-one] | 12 nM | 9 nM | 200 nM | 1950 nM |  |  |  |  |  |  |
| C[C@@H]1CN(c2nc3c4cnc(c(F)c4n2)-c2c(c(Cl)cc4[nH]ncc24)CCCOC(=O)O[C@@H]2COCCN3C2)CCN1 [Example 348, (26S)-18-chloro-32-fluoro-4-((3R)-3-methyl-1-piperazinyl)-23,25,28-trioxa-1,3,5,9,14,15-hexaazahexacyclo[24.4.1.1~6,10~.0~2,7~.0~11,19~.0~12,16~]dotriaconta-2,4,6,8,10(32),11,13,16,18-nonaen-24-one] | 13 nM | 4 nM |  |  | 298 nM | 2220 nM |  |  |  |  |
| CO[C@@H]1C[C@@H](COc2nc3c4cnc(c(F)c4n2)-c2c(c(Cl)cc4[nH]ncc24)CCCOC(=O)O[C@]2(C)COCCN3C2)N(C)C1 [Example 319, (26S)-18-chloro-32-fluoro-4-(((2S,4R)-4-methoxy-1-methyl-2-pyrrolidinyl)methoxy)-26-methyl-23,25,28-trioxa-1,3,5,9,14,15-hexaazahexacyclo[24.4.1.1~6,10~.0~2,7~.0~11,19~.0~12,16~]dotriaconta-2,4,6,8,10(32),11,13,16,18-nonaen-24-one] | 6 nM | 3 nM |  |  | 26.7 nM | 134 nM |  |  |  |  |
| Cc1cc2[nH]ncc2c2c1CCC[C@H](O)CC[C@H]1CCCN(C1)c1nc(OC[C@@]34CCCN3C[C@H](F)C4)nc3c(F)c-2ncc13 [Example 238, (14S,17R)-30-fluoro-24-(((2R,7aS)-2-fluorotetrahydro-1H-pyrrolo[1,2-a]pyrrol-7a(5H)-yl)methoxy)-9-methyl-5,6,21,23,25,29-hexaazahexacyclo[24.3.1.1˜17,21˜.0˜2,10˜.0˜3,7˜.0˜22,27˜]hentriaconta-1(30),2,4,7,9,22,24,26,28-nonaen-14-ol] | 45 nM | 24 nM |  |  | 861 nM | 5000 nM |  |  |  |  |
| Fc1c2ncc3c(nc(OC[C@@]45CCCN4C[C@H](F)C5)nc13)N1CCO[C@@H](COCC[C@@H]3C[C@@H]3c3c(Cl)cc4[nH]ncc4c3-2)C1 [Example 392, (11S,13S,18R)-9-chloro-31-fluoro-25-(((2R,7aS)-2-fluorotetrahydro-1H-pyrrolo[1,2-a]pyrrol-7a(5H)-yl)methoxy)-16,19-dioxa-5,6,22,24,26,30-hexaazaheptacyclo[25.3.1.1~18,22~.0~2,10~.0~3,7~.0~11,13~.0~23,28~]dotriaconta-1(31),2,4,7,9,23,25,27,29-nonaene] |  |  |  |  |  |  | 6 nM | 4 nM | 31.5 nM | 291 nM |
| Fc1c2ncc3c(nc(OC[C@@]45CCCN4C[C@H](F)C5)nc13)N1CCOC[C@H](C1)c1cnn(n1)CCCc1c(Cl)cc3[nH]ncc3c1-2 [Example 298, (1R)-10-chloro-33-fluoro-24-(((2R,7aS)-2-fluorotetrahydro-1H-pyrrolo[1,2-a]pyrrol-7a(5H)-yl)methoxy)-30-oxa-4,5,13,14,19,23,25,27,34-nonaazaheptacyclo[25.4.1.1~2,5~.1~18,22~.0~9,17~.0~12,16~.0~21,26~]tetratriaconta-2(34),3,9,11,14,16,18(33),19,21,23,25-undecaene] | 7 nM | 3 nM |  |  | 91.3 nM | 592 nM |  |  |  |  |
| O=C1OCCCc2c(Cl)cc3[nH]ncc3c2-c2ncc3c(nc(OC[C@@]45CCCN4C[C@H](F)C5)nc3c2F)N2CCOCC3(CC(C3)O1)C2 [Example 313] | 19 nM | 11 nM |  |  | 462 nM | 1210 nM |  |  |  |  |
| O=C1CCCc2c(F)ccc3cc(O)cc(c23)-c2ncc3c(nc(OC[C@@]45CCCN4C[C@H](F)C5)nc3c2F)N2CCC[C@](CF)(C2)O1 [Example 42] | 4 nM | 2 nM |  |  | 38 nM | 414 nM |  |  |  |  |
| Cc1cc2[nH]ncc2c2c1C/C=C/COC[C@@H]1CCCN(C1)c1nc(OC[C@@]34CCCN3C[C@H](F)C4)nc3c(F)c-2ncc13 [Example 130] | 5 nM | 2 nM |  |  | 32 nM | 230 nM |  |  |  |  |

Continued, values first:

| IC50 [1, 4] | IC50 [2, 5] | IC50 [3, 6] | IC50 (AsPC-1 cells; AsPC-1, 72 h) | IC50 [3, 7] | IC50 (AsPC-1 cells; [8]) | IC50 [1, 9] | IC50 [2, 10] | IC50 [3, 11] | IC50 (AsPC-1 cells; [12]) | Compound |
| --- | --- | --- | --- | --- | --- | --- | --- | --- | --- | --- |
| 47 nM | 23 nM | 332 nM | 3060 nM |  |  |  |  |  |  | Cc1c2ncc3c(nc(OC[C@@]45CCCN4C[C@H](F)C5)nc13)N1CCOC[C@H](C1)OC(=O)OCCCc1c(Cl)cc3[nH]ncc3c1-2 (atropisomer, axis not shown) [Example 342, (26S)-18-chloro-4-(((2R,7aS)-2-fluorotetrahydro-1H-pyrrolo[1,2-a]pyrrol-7a(5H)-yl)methoxy)-32-methyl-23,25,28-trioxa-1,3,5,9,14,15-hexaazahexacyclo[24.4.1.1~6,10~.0~2,7~.0~11,19~.0~12,16~]dotriaconta-2,4,6,8,10(32),11,13,16,18-nonaen-24-one] |
|  |  |  |  |  |  | 5 nM | 4 nM | 32.7 nM | 127 nM | Fc1c2ncc3c(nc(OC[C@@]45CCCN4C[C@H](F)C5)nc13)N1CCO[C@@H](Cc3ncc(o3)CCc3c(Cl)cc4[nH]ncc4c3-2)C1 [Example 374] |
| 12 nM | 9 nM |  |  | 95.1 nM | 174 nM |  |  |  |  | O=C1CCCCc2c(Cl)cc3[nH]ncc3c2-c2ncc3c(nc(OC[C@@]45CCCN4C[C@H](F)C5)nc3c2F)N2CCOCC(C1)C2 (mixture of isomers) [Example 230] |
| 9 nM | 5 nM |  |  | 31.2 nM | 446 nM |  |  |  |  | Fc1c2ncc3c(nc(OC[C@@]45CCCN4C[C@H](F)C5)nc13)N1CCC[C@H](C1)c1noc(n1)CCCc1c(Cl)cc3[nH]ncc3c1-2 [Example 247, (18R)-9-chloro-31-fluoro-25-(((2R,7aS)-2-fluorotetrahydro-1H-pyrrolo[1,2-a]pyrrol-7a(5H)-yl)methoxy)-15-oxa-5,6,16,22,24,26,30,33-octaazaheptacyclo[25.3.1.1~14,17~.1~18,22~.0~2,10~.0~3,7~.0~23,28~]tritriaconta-1(31),2,4,7,9,14(33),16,23,25,27,29-undecaene] |
| 6 nM | 4 nM |  |  | 77 nM | 809 nM |  |  |  |  | Cc1cc2[nH]ncc2c2c1CCCCC(=O)O[C@]1(CF)CCCN(C1)c1nc(OC[C@@]34CCCN3C[C@H](F)C4)nc3c(F)c-2ncc13 [Example 33, (17R)-30-fluoro-17-(fluoromethyl)-24-(((2R,7aS)-2-fluorotetrahydro-1H-pyrrolo[1,2-a]pyrrol-7a(5H)-yl)methoxy)-9-methyl-16-oxa-5,6,21,23,25,29-hexaazahexacyclo[24.3.1.1~17,21~.0~2,10~.0~3,7~.0~22,27~]hentriaconta-1(30),2,4,7,9,22,24,26,28-nonaen-15-one] |
| 7 nM | 4 nM |  |  | 246 nM | 1350 nM |  |  |  |  | CN(C)CC1(COc2nc3c4cnc(c(F)c4n2)-c2c(c(Cl)cc4[nH]ncc24)CCCCC(=O)N2CC[C@@H]4CCN3C[C@@H]42)CC1 [Example 268, (28S,32R)-18-chloro-4-((1-((dimethylamino)methyl)cyclopropyl)methoxy)-33-fluoro-1,3,5,9,14,15,25-heptaazaheptacyclo[23.5.2.1~6,10~.0~2,7~.0~11,19~.0~12,16~.0~28,32~]tritriaconta-2,4,6,8,10(33),11,13,16,18-nonaen-24-one] |
